Test results taken from patent publication US10669227B2 (THE RESEARCH FOUNDATION OF STATE UNIVERSITY OF NEW YORK, priority 2009, dated 2020).

What was measured:
[1] = Type I diabetic rat model, 3-week oral treatment: blood glucose and hemoglobin A1c; type: in vivo; conditions: diabetic rats, 100 and 500 mg/kg oral daily, 3 weeks
Procedure: (§1) At the end of the treatment protocol, the rats were sacrificed, blood samples were collected, and whole skin (except over limbs) and qingiva were dissected (the skin, because of ample quantities of tissue were analyzed for each rat separately; the gingiva, because of the tiny amounts that could be harvested per rat, were pooled for each experimental group, as prescribed previously for tetracycline studies (30). In addition, the jaw bones were collected, defleshed, and bone loss around the teeth analyzed morphometrically as described previously (42, 43).

MMP-13 (Collagenase-3) = MMP-13 (Collagenase-3) (Homo sapiens (Human), UniProt P45452); test: MMP-13 inhibition in vitro, octapeptide substrate, HPLC; type: biochemical; conditions: read-out: MMP-13 Maximum Inhibition @100 μM
MMP-2 = test: Diabetic rat, MMP-2 in skin by ELISA; type: in vivo; conditions: both low and high doses, 3 weeks
Procedure: as §1

[2] = biological target: MMP-2 (72 kDa gelatinase) (Rattus norvegicus (Rat), UniProt P33436); test: Diabetic rat, plasma gelatinase by gelatin zymography (MMP-2); type: in vivo; conditions: diabetic rats, 100 mg/kg oral once/day, 7 days
MMP-9 = MMP-9 (Rattus norvegicus (Rat), UniProt P50282); test: Diabetic rat, gingiva gelatinase by gelatin zymography (MMP-9); type: in vivo; conditions: diabetic rats, 100 and 500 mg/kg oral daily, 3 weeks
Procedure: as §1
This appearance of MMP-9 only in the gingiva (FIG. 10), but not the skin (FIG. 12), of the diabetic rats is likely the result of the oral bacteria inducing inflammation in the gingiva of these immune-suppressed UD rats, whereas the skin is not exposed to this onslaught of bacteria particularly the anaerobic gram-negative bacteria in the mouth that cause periodontal and gingival inflammation.

collagenase-2 (MMP-8) = collagenase-2 (MMP-8) (Rattus norvegicus (Rat), UniProt O88766); test: Diabetic rat, MMP-8 in skin extracts by Western blot; type: in vivo; conditions: diabetic rats, 100 mg/kg oral once/day, 7 days
Procedure: (§2) The latter assays were carried out using Western blot analysis with monoclonal antibodies to MMP-8.

[3] = tested on: PC-3 human prostate cancer cells; test: MMP-9 in conditioned media of PC-3 cells, gelatin zymography and Western blot; type: cell-based; conditions: 10 μM and 20 μM, 48 hr, serum-free
Procedure: Compound 1 was evaluated in a cell culture model of cancer. […] After the incubation, aliquots of the conditioned media were assayed for MMP-9 (gelatinase B) by either of two techniques, gelatin zymography (in the presence of 2 or 10 mMCa^++) and Western blot (both assays used purified MMP-9, 92 kDa gelatinase, as a standard).

[4] = biological target: MMP-9 (human leukocyte gelatinase) (Homo sapiens (Human), UniProt P14780); test: MMP-9 inhibition in vitro, octapeptide substrate, HPLC; type: biochemical; conditions: read-out: Maximum Inhibition At 100 μM compound (MMP-9)
Description: In contrast all three chemically-modified curcumins at 100 μm final concentration inhibited gelatinase activity by 68-100% (FIG. 6 and Table 6).

[5] = tested on: p38 MAP kinase activation; test: p38 MAP kinase activation, preliminary studies; type: cell-based
[6] = Type I diabetic rat model, 1-week oral treatment: glucose, adverse events, serum level; type: in vivo; conditions: diabetic rats
Description: The purpose of the following was to establish an in vivo model of excessive collagen degradation to be used to test efficacy of the compounds of the subject invention. Male Sprague-Dawley rats (typically 300-400 gms of body weight), specific viral antibody free, were ordered from Charles River. Following general anesthesia via isoflurane anesthetic inhalation, diabetes was induced by an I.V. administration of streptozotocin (STZ) (50*mg/kg body weight) (Sigma Chemical Co., St Louis, Mo., USA) diluted in 0.9% citrated saline (pH 4.5), after 12 hours of fasting. After the streptozotocin injection, the animals were given free access to water and food. […] In this test, the test-paper color changes to dark brown which indicates glycosuria.
as §2

alveolar bone loss = test: Diabetic rat, alveolar bone loss, morphometric; type: in vivo; conditions: 500 mg/kg oral, 3 weeks
Procedure: as §1
Alveolar bone loss (the signature pathologic event in inflammatory periodontal disease) was assessed in the defleshed jaws of the compound 1-treated (TX) and untreated rats.

human monocytes = test: Cytotoxicity in human monocytes (MTS); type: cell-based
Procedure: Briefly, human peripheral blood monocytes (HMs) were isolated from a leukocyte concentrate by density gradient centrifugation (Lymphoprep) and the isolated HMs cultured (2 h, 37° C.) to remove non-adherent cells. […] After incubation, the proinflammatory cytokines, TNFα, […], MCP-1 and IL-6 were measured in the conditioned media by ELISA and cytotoxicity was assessed by measuring the absorbance (490 nm) of formazan produced by reduction of MTS. The HMs alone±0.1-0.5% DMSO produced minimal levels of these pro-inflammatory cytokines. However, addition of 100 ng/ml or 10 μg/ml of LPS both dramatically stimulated cytokine production.

NFκB activation = NFκB activation in human monocytes in cell culture; type: cell-based; conditions: Monocyte
[7] = biological target: MMP-9 (92 kDa gelatinase) (Rattus norvegicus (Rat), UniProt P50282); test: Diabetic rat, plasma gelatinase by gelatin zymography (MMP-9); type: in vivo; conditions: diabetic rats, 100 mg/kg oral once/day, 7 days
TNF-α = test: Inhibition of TNF-α production by LPS-stimulated monocytes; type: cell-based, human
Procedure: Briefly, human peripheral blood monocytes (HMs) were isolated from a leukocyte concentrate by density gradient centrifugation (Lymphoprep) and the isolated HMs cultured (2 h, 37° C.) to remove non-adherent cells. The adherent HMs wore cultured for 18 h (1×10^6 cells/well, 24-well plates)±endotoxin (LPS)±different compounds dissolved in DMSO (the final concentration of DMSO in the RPMI serum-free culture media with Pen./Strep. antibiotics was no greater than 0.5%). After incubation, the proinflammatory cytokines, TNFα, […], MCP-1 and IL-6 were measured in the conditioned media by ELISA and cytotoxicity was assessed by measuring the absorbance (490 nm) of formazan produced by reduction of MTS. The HMs alone±0.1-0.5% DMSO produced minimal levels of these pro-inflammatory cytokines. However, addition of 100 ng/ml or 10 μg/ml of LPS both dramatically stimulated cytokine production.
The cytokine levels were measured by Luminex multiplex, a method that allows the simultaneous measurement of different biological markers.

MMP-9 (human leukocyte gelatinase), sequence (P14780 94-707): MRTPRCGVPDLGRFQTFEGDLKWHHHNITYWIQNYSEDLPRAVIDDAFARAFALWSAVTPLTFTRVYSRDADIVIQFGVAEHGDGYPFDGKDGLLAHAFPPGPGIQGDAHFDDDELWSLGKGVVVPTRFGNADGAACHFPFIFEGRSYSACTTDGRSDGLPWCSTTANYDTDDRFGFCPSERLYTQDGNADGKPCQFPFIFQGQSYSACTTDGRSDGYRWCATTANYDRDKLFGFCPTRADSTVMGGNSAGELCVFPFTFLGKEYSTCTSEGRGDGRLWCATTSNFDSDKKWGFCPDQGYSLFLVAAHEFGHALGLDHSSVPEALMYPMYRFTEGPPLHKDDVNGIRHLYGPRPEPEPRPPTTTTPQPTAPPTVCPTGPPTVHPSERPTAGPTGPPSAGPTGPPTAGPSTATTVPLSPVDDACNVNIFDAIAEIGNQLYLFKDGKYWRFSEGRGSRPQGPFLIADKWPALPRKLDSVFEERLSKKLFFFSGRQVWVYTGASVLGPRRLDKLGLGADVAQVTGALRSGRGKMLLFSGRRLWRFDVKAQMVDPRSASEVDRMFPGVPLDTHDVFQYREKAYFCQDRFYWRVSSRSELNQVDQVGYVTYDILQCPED

## COC(=O)C(C(=O)/C=C/c1ccc(O)c(OC)c1)C(=O)/C=C/c1ccc(O)c(OC)c1 [Compound 1, 1,7-Bis(4-hydroxy-3-methoxyphenyl)-4-methoxycarbonylhepta-1E,6E-dien-3,5-dione]
[1]
  Blood glucose: no significant effect
  Hemoglobin A1c level: no significant effect
MMP-13 (Collagenase-3)
  inhibition at 100 µM: 69%
MMP-2
  Reduction of elevated MMP-2 level in skin: 28%
[2]
  Plasma MMP-2 level: reduced the excessive levels of MMPs to essentially normal levels
MMP-9
  MMP-9 level in gingiva: reduced MMP-9 to the undetectable levels
collagenase-2 (MMP-8)
  MMP-8 level in skin extracts: A similar pattern was observed
[3]
  MMP-9 production and/or activity in conditioned media: inhibited the production and/or activity of MMP-9
[4]
  inhibition at 100 µM: 72%
[5]
  Effect on p38 MAP kinase activation: little/no effect
[6]; 100 mg/kg oral once/day, 7 days
  Severity of hyperglycemia (serum glucose): no effect on the severity of hyperglycemia
[6]; n = 6, 1 week oral treatment
  Description of AEs: Minor inflamed
  Incidence of Adverse Events (AEs): 1/6
[6]; male, Sprague-Dawley, rat, serum, 100 mg/kg, 1 week oral treatment, FIG. 7
  concentration at 7 days: ~100 ng/mL
Alveolar bone loss
  Reduction in alveolar bone loss vs untreated groups: less effective
Human monocytes; 2 uM
  Cytotoxicity Monocytes @ 5 h incubation: 2 uM - 0%
Human monocytes; 10 uM
  Cytotoxicity Monocytes @ 5 h incubation: 10 uM - 0%
Human monocytes; 25 uM
  Cytotoxicity Monocytes @ 5 h incubation: 25 uM - 33%
  Cytotoxicity Monocytes @ 18 h incubation: 25 uM - 45.5%
Human monocytes; 50 uM
  Cytotoxicity Monocytes @ 18 h incubation: 50 uM - 53%
NFκB activation; CRP/oxid-LDL Complex
  inhibition at 2 µM: 91%
  inhibition at 10 µM: 100%
NFκB activation; Endotoxin (LPS)
  inhibition at 2 µM: 24%
  inhibition at 10 µM: 85%
[7]
  Plasma MMP-9 level: reduced the excessive levels of MMPs to essentially normal levels
TNF-α; 2 μM, FIG. 2
  TNFα level in LPS-challenged human monocytes, Luminex multiplex: potent in reducing
TNF-α; Homo sapiens, Monocyte, 18 h, 2 uM, read-out: % Inhibition of TNF-α produced by stimulated Monocytes with LPS @ 18 h
  inhibition at 2 µM: 63%
TNF-α; Homo sapiens, Monocyte, 18 h, 25 uM, read-out: % Inhibition of TNF-α produced by stimulated Monocytes with LPS @ 18 h
  inhibition at 25 µM: 100%
TNF-α; Homo sapiens, Monocyte, 18 h, 50 uM, read-out: % Inhibition of TNF-α produced by stimulated Monocytes with LPS @ 18 h
  inhibition at 50 µM: 100%
